Results as given in ChEMBL document CHEMBL3991601, “The target landscape of clinical kinase drugs” (Science, 2017).
Calls of active or inactive are those of the source. Rule as the data show it, for most assays here: actives have a measured Kd and inactives only a lower limit.

What was measured:
[1] = target: T1, Serine/threonine-protein kinase ICK (Homo sapiens, UniProt Q9UPZ9)
T1 sequence (Q9UPZ9 whole entry): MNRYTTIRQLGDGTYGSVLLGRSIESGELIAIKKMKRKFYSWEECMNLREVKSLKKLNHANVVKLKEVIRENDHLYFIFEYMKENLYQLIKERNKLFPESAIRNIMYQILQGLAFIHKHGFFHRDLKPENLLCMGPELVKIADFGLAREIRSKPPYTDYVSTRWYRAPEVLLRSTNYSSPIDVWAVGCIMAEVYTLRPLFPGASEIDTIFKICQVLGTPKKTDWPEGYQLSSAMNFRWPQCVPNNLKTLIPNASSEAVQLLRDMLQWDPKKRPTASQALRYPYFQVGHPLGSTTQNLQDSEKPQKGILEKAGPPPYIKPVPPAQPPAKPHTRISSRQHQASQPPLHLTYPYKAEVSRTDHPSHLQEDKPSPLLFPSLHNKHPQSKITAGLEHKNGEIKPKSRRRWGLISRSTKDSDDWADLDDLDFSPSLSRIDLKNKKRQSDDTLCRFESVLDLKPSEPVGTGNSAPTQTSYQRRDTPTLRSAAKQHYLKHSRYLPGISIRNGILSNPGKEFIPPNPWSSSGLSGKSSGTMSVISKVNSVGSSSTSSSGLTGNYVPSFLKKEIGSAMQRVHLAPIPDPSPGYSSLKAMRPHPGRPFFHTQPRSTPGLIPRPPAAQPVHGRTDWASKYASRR

[2] = target: T2, Phosphatidylinositol 5-phosphate 4-kinase type-2 gamma (Homo sapiens, UniProt Q8TBX8)
T2 sequence (Q8TBX8 whole entry): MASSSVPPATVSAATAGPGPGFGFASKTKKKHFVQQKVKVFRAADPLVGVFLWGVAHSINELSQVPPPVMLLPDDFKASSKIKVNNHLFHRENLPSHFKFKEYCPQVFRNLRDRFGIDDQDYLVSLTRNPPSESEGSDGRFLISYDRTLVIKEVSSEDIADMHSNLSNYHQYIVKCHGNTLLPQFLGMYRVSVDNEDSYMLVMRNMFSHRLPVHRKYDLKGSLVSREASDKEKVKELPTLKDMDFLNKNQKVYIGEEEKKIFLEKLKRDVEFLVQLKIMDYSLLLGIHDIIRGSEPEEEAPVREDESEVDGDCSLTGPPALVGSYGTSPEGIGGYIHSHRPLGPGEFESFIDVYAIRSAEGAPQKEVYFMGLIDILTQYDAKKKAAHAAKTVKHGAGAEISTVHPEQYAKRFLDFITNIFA

[3] = target: Serine/threonine-protein kinase MRCK beta (Homo sapiens, UniProt Q9Y5S2)
[4] = target: T3, Ferrochelatase, mitochondrial (Homo sapiens, UniProt P22830)
T3 sequence (P22830 whole entry): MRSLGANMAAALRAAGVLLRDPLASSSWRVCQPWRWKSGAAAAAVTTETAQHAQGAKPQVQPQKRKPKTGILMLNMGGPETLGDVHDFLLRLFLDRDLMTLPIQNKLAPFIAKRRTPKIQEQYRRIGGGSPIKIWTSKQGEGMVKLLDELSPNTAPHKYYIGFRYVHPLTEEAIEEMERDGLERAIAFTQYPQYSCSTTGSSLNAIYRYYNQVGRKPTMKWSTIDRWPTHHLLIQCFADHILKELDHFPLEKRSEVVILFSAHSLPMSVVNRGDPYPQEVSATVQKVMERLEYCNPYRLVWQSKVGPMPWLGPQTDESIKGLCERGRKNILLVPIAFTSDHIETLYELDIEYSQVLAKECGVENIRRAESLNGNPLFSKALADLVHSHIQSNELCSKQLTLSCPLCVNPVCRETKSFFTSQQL

[5] = target: T4, Bone morphogenetic protein receptor type-2 (Homo sapiens, UniProt Q13873)
T4 sequence (Q13873 whole entry): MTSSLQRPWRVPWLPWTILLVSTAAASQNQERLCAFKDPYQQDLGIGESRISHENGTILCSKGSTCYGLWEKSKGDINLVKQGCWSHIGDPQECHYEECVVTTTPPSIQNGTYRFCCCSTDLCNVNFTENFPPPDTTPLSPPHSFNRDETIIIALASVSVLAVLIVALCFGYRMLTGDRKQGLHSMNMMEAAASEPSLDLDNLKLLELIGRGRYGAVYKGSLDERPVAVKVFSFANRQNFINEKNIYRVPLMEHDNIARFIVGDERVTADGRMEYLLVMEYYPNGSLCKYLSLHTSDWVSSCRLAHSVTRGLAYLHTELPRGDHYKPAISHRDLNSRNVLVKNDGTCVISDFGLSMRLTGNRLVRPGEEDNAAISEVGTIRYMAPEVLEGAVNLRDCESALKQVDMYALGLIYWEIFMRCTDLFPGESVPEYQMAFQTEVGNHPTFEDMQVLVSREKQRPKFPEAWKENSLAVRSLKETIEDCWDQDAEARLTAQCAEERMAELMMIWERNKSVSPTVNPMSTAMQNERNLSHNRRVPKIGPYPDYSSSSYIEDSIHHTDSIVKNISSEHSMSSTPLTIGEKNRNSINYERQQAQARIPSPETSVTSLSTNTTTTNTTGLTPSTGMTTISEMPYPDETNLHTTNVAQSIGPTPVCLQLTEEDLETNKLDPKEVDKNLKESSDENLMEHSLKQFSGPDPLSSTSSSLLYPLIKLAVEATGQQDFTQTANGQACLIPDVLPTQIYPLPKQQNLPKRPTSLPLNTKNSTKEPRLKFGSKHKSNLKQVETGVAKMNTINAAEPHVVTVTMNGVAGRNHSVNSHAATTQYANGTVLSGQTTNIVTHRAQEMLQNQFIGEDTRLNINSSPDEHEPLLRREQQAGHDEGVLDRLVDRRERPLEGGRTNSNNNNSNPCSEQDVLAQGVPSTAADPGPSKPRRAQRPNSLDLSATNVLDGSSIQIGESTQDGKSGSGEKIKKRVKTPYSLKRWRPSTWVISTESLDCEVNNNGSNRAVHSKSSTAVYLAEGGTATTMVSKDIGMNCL

[6] = target: Mitogen-activated protein kinase kinase kinase 1 (Homo sapiens, UniProt Q13233)
Chain of Mitogen-activated protein kinase kinase kinase 1 (Q13233 whole entry): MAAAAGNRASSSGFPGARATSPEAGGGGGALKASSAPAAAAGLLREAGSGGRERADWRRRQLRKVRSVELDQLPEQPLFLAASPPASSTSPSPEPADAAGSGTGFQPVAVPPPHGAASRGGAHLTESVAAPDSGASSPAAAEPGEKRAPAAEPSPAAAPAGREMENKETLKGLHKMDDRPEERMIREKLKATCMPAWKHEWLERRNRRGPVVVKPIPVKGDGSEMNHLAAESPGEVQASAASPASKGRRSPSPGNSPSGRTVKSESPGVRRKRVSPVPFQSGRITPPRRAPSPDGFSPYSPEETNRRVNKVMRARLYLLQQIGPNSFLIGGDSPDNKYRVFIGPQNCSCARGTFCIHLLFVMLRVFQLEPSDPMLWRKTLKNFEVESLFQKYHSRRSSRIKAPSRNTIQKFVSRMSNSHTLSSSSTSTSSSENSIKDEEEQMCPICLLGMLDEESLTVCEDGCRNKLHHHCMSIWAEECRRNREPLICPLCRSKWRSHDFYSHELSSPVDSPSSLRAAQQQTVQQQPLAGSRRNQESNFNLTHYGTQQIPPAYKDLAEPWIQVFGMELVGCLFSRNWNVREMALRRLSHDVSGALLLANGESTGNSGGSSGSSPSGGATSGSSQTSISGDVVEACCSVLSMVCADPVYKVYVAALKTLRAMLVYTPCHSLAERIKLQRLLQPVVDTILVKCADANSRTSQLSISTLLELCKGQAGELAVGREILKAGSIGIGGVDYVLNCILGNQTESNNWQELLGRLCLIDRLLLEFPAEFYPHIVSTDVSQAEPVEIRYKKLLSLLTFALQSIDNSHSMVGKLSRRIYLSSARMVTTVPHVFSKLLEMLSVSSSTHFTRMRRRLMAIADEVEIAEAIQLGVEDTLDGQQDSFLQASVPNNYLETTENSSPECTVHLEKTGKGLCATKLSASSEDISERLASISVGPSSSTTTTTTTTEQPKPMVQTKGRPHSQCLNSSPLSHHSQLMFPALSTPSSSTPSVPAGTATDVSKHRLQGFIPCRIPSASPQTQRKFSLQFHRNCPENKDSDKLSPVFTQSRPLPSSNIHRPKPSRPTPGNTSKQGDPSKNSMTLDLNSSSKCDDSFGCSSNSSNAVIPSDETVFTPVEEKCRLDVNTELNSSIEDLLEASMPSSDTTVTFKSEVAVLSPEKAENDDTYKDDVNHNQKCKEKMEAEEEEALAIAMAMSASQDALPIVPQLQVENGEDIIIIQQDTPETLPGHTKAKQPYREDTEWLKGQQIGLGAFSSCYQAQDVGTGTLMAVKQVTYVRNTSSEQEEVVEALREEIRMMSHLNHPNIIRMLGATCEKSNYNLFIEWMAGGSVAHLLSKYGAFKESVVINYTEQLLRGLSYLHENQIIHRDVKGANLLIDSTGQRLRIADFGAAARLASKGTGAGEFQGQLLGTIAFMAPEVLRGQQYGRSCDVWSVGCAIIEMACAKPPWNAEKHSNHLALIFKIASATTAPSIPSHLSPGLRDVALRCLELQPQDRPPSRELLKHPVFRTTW

[7] = target: 5'-AMP-activated protein kinase catalytic subunit alpha-1 (Homo sapiens, UniProt Q13131)
Chain of 5'-AMP-activated protein kinase catalytic subunit alpha-1 (Q13131 whole entry): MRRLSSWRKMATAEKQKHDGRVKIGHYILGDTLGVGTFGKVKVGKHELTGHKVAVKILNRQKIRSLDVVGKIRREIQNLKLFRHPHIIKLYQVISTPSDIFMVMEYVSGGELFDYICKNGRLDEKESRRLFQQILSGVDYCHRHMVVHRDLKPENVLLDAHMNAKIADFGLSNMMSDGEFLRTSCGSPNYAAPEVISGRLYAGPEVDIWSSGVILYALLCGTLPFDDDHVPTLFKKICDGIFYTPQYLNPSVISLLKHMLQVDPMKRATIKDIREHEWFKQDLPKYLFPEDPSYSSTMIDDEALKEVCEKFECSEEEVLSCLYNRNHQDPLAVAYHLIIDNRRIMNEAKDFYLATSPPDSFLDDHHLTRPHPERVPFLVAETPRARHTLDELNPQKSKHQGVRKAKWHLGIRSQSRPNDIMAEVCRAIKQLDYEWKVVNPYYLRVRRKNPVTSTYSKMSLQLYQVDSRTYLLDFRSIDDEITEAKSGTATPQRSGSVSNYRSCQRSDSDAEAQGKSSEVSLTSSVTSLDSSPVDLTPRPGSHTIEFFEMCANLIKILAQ

[8] = target: Serine/threonine-protein kinase 10 (Homo sapiens, UniProt O94804)
Chain of Serine/threonine-protein kinase 10 (O94804 whole entry): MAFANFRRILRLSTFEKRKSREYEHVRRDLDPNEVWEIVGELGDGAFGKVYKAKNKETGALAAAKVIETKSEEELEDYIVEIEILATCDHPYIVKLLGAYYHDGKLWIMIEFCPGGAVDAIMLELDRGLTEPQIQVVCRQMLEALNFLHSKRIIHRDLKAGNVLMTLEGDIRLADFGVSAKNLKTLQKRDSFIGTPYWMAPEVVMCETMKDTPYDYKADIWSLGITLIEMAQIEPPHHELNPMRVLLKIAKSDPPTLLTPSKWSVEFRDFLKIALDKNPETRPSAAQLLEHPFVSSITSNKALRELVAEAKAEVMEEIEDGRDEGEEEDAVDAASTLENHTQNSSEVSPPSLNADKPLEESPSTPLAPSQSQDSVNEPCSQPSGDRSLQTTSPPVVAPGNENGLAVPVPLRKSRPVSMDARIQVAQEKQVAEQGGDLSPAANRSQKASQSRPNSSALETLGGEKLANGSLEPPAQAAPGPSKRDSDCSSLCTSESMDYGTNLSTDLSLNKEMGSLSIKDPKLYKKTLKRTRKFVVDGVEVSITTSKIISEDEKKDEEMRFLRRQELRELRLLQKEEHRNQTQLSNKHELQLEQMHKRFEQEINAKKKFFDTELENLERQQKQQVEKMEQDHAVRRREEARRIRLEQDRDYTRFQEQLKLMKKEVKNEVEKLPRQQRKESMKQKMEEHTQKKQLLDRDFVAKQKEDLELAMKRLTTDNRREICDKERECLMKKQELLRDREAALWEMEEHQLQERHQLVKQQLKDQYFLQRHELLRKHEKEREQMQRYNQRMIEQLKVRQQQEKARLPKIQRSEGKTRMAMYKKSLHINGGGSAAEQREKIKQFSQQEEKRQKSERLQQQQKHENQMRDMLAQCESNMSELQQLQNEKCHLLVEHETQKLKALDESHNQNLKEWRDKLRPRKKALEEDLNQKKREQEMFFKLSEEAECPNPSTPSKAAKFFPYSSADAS

[9] = target: Mitogen-activated protein kinase 3 (Homo sapiens, UniProt P27361)
Chain of Mitogen-activated protein kinase 3 (P27361 whole entry): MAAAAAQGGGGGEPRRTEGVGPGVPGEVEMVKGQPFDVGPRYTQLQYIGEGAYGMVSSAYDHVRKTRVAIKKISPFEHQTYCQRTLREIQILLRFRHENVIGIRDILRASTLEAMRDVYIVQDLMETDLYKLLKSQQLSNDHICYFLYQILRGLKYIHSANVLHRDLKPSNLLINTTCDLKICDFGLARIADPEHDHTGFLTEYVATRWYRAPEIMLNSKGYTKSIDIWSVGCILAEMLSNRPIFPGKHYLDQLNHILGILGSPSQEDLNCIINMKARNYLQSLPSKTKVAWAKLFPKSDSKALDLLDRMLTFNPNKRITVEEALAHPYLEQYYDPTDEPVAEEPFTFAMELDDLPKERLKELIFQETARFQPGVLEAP

[10] = target: Tyrosine-protein kinase BTK (Homo sapiens, UniProt Q06187)
Chain of Tyrosine-protein kinase BTK (Q06187 whole entry): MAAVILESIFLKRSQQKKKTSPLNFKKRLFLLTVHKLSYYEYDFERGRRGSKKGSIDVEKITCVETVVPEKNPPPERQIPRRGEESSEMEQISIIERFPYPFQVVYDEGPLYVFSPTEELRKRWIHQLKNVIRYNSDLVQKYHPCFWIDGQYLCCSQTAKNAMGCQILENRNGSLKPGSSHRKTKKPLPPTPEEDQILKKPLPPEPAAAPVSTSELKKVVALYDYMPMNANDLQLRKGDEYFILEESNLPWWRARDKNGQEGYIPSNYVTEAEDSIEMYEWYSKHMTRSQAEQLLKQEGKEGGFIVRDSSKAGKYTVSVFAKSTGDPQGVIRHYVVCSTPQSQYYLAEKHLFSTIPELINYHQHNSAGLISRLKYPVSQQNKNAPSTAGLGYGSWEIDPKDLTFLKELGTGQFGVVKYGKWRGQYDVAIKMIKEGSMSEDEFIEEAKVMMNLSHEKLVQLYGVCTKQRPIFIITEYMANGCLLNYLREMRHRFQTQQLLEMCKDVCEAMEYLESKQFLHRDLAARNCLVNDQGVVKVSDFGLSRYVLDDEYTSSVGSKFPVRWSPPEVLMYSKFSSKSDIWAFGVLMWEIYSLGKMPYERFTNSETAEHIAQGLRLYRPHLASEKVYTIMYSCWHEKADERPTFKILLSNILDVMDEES
Also: in the data inactive means no Kd found up to 30 µM.

| Compound | Kd [1] | Kd [2] | Kd [3] | Kd [4] | Kd [5] | Kd [6] | Kd [7] | Kd [8] | Kd [9] | Kd [10] |
| --- | --- | --- | --- | --- | --- | --- | --- | --- | --- | --- |
| CCc1nc(C(N)=O)c(Nc2ccc(N3CCC(N4CCN(C)CC4)CC3)c(OC)c2)nc1NC1CCOCC1 [GILTERITINIB] | > 30 µM (inactive) | > 30 µM (inactive) | > 30 µM (inactive) | > 30 µM (inactive) | > 30 µM (inactive) | > 30 µM (inactive) | > 30 µM (inactive) | 0.149 µM (active) | > 30 µM (inactive) | > 30 µM (inactive) |
| Cc1c(Cn2c(C)nc3c(C(=O)O)cc(N4CCOCC4)cc32)cccc1C(F)(F)F [GSK-2636771] | > 30 µM (inactive) | > 30 µM (inactive) | > 30 µM (inactive) | > 30 µM (inactive) | > 30 µM (inactive) | > 30 µM (inactive) | > 30 µM (inactive) | > 30 µM (inactive) | > 30 µM (inactive) | > 30 µM (inactive) |
| O=S(=O)(c1cccc2c(O)nccc12)N1CCCNCC1 [HYDROXYFASUDIL] | > 30 µM (inactive) | > 30 µM (inactive) | > 30 µM (inactive) | > 30 µM (inactive) | > 30 µM (inactive) | > 30 µM (inactive) | > 30 µM (inactive) | > 30 µM (inactive) | > 30 µM (inactive) | > 30 µM (inactive) |
| C#Cc1cccc(Nc2ncnc3cc4c(cc23)OCCOCCOCCO4)c1 [ICOTINIB] | > 30 µM (inactive) | 4.66 µM (active) | > 30 µM (inactive) | > 30 µM (inactive) | > 30 µM (inactive) | 4.13 µM (active) | > 30 µM (inactive) | 0.227 µM (active) | > 30 µM (inactive) | > 30 µM (inactive) |
| COc1cc2ncnc3c2cc1OCCCCCN(C)Cc1ccc(Br)cc1N3 [JNJ-26483327] | > 30 µM (inactive) | > 30 µM (inactive) | > 30 µM (inactive) | 3.97 µM | > 30 µM (inactive) | > 30 µM (inactive) | > 30 µM (inactive) | 45.1 µM (active) | > 30 µM (inactive) | > 30 µM (inactive) |
| Cc1ccc(C(=O)Nc2ccc(Oc3cc4cnn(C)c4cc3-c3cn[nH]c3)c(F)c2)c(=O)n1-c1ccc(F)cc1 [MERESTINIB] | > 30 µM (inactive) | > 30 µM (inactive) | > 30 µM (inactive) | > 30 µM (inactive) | > 30 µM (inactive) | > 30 µM (inactive) | > 30 µM (inactive) | > 30 µM (inactive) | > 30 µM (inactive) | > 30 µM (inactive) |
| O=C(NOC[C@H](O)CO)c1ccc(F)c(F)c1Nc1ccc(I)cc1F [MIRDAMETINIB] | > 30 µM (inactive) | > 30 µM (inactive) | > 30 µM (inactive) | > 30 µM (inactive) | > 30 µM (inactive) | > 30 µM (inactive) | > 30 µM (inactive) | > 30 µM (inactive) | > 30 µM (inactive) | > 30 µM (inactive) |
| COc1cccc2cc(-c3nc([C@H]4CC[C@H](C(=O)O)CC4)n4ncnc(N)c34)[nH]c12 [OSI-027] | > 30 µM (inactive) | 4.97 µM | > 30 µM (inactive) | 12.6 µM (active) | 2.1 µM | > 30 µM (inactive) | > 30 µM (inactive) | > 30 µM (inactive) | > 30 µM (inactive) | > 30 µM (inactive) |
| O=C(Nc1ccc(OC(F)(F)F)cc1)c1sccc1NCc1ccnc2ccccc12 [OSI-930] | > 30 µM (inactive) | > 30 µM (inactive) | > 30 µM (inactive) | > 30 µM (inactive) | > 30 µM (inactive) | > 30 µM (inactive) | > 30 µM (inactive) | > 30 µM (inactive) | > 30 µM (inactive) | > 30 µM (inactive) |
| C=CC(=O)Nc1cc(Nc2nccc(-c3cn(C)c4ccccc34)n2)c(OC)cc1N(C)CCN(C)C [OSIMERTINIB] | > 30 µM (inactive) | 2.97 µM (active) | > 30 µM (inactive) | > 30 µM (inactive) | > 30 µM (inactive) | > 30 µM (inactive) | > 30 µM (inactive) | > 30 µM (inactive) | > 30 µM (inactive) | 0.525 µM (active) |
| FC(F)(F)c1ccc(CNc2ccc(Cc3c[nH]c4ncc(Cl)cc34)cn2)cn1 [PEXIDARTINIB] | > 30 µM (inactive) | > 30 µM (inactive) | > 30 µM (inactive) | > 30 µM (inactive) | > 30 µM (inactive) | > 30 µM (inactive) | > 30 µM (inactive) | > 30 µM (inactive) | > 30 µM (inactive) | > 30 µM (inactive) |
| COc1cc(F)c(F)c(Nc2ccc(I)cc2F)c1NS(=O)(=O)C1(C[C@H](O)CO)CC1 [REFAMETINIB] | > 30 µM (inactive) | > 30 µM (inactive) | > 30 µM (inactive) | > 30 µM (inactive) | > 30 µM (inactive) | > 30 µM (inactive) | > 30 µM (inactive) | > 30 µM (inactive) | > 30 µM (inactive) | > 30 µM (inactive) |
| COCCN1CCN(Cc2ccc(-c3n[nH]c4c3C(=O)c3c(NC(=O)NN5CCOCC5)cccc3-4)cc2)CC1 [RGB-286638] | 0.008 µM (active) | 2.18 µM | 1.02 µM (active) | > 30 µM (inactive) | 0.153 µM | > 30 µM (inactive) | > 30 µM (inactive) | > 30 µM (inactive) | > 30 µM (inactive) | > 30 µM (inactive) |
| C=CC(=O)Nc1cccc(Nc2nc(Nc3ccc(N4CCN(C(C)=O)CC4)cc3OC)ncc2C(F)(F)F)c1 [ROCILETINIB] | > 30 µM (inactive) | > 30 µM (inactive) | > 30 µM (inactive) | > 30 µM (inactive) | > 30 µM (inactive) | > 30 µM (inactive) | > 30 µM (inactive) | > 30 µM (inactive) | > 30 µM (inactive) | 0.547 µM (active) |
